The target in assay [1] is T1, light chain of BoNT serotype A (LC/A) (Clostridium botulinum, UniProt P0DPI1). It is filed as biochemical.
The target in assay [2] is T1, light chain of BoNT serotype A (LC/A). The note with it: cited from earlier work.
Assay [3] relates to primary rat cerebellar neurons. It is filed as cell-based.

SMILES strings stand for the structures. Entries after “also recorded” stand apart in the source; their conditions may differ. Where two headings read alike, the source gives them in different places.

T1 sequence (P0DPI1 2-448 limits assumed): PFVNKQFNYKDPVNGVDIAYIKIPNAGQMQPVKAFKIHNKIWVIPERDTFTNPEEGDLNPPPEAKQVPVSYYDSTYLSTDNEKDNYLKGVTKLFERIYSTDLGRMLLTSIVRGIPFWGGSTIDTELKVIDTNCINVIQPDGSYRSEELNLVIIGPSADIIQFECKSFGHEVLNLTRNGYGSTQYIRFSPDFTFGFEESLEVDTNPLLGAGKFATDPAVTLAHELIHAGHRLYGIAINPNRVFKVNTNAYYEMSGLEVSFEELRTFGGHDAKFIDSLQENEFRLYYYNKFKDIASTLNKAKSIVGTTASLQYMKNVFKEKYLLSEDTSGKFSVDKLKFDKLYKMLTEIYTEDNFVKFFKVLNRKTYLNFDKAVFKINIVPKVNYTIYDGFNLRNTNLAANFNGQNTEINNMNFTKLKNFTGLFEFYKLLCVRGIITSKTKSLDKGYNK

Consider `C=C(C)[C@@H]1CC[C@]2(C(=O)O)CC[C@]3(C)[C@H](CC[C@@H]4[C@@]5(C)CC[C@H](O)C(C)(C)[C@@H]5CC[C@]43C)[C@@H]12` [Compound 18, betulinic acid], for which, in assay [1], the “fold less potent than 7 (Ki)” value is on record as about 18 fold and the mechanism of inhibition result is on record as “competitive”.
Consider `O=C(/C=C/c1ccc(O)c(O)c1)O[C@H](C(=O)O)[C@H](OC(=O)/C=C/c1ccc(O)c(O)c1)C(=O)O` [D-chicoric acid], for which the mechanism of inhibition result in assay [2] was “noncompetitive partial inhibition”.
Take `C=C(C)[C@@H]1CC[C@]2(COC(=O)CCC(=O)O)CC[C@]3(C)[C@H](CC[C@@H]4[C@@]5(C)CC[C@H](O)C(C)(C)[C@@H]5CC[C@]43C)[C@@H]12` [Compound 7, 28-hemisuccinylbetulin]: in assay [1], the Ki entry is “sub-micromolar” and the mechanism of inhibition entry was “competitive”. In addition, the “protection against BoNT/A (intracellular SNAP-25 cleavage)” value in assay [3] is listed as “did not show any protection; also recorded: did not show inhibitory activity; also recorded: did not demonstrate protection”.
Take `C=C(C)[C@@H]1CC[C@]2(COC(=O)COc3cc(C(C)C)ccc3C)CC[C@]3(C)[C@H](CC[C@@H]4[C@@]5(C)CC[C@H](O)C(C)(C)[C@@H]5CC[C@]43C)[C@@H]12` [Compound 8, betulinyl 28-carboxymethoxycarvacrolate]: in assay [1], the “fold less potent than 7 (Ki)” value is listed as “about 16 fold” and the mechanism of inhibition result is reported as “competitive”.
